Test results from patent US8629149B2, “Oxopiperazine derivatives for the treatment of pain and epilepsy” (Zalicus Pharmaceuticals Ltd., priority 2009, dated 2014).

Key:
[1] = molecular target: T1, Cav3.2 T-type Ca2+ channels expressed in HEK cells (Homo sapiens, UniProt O95180); experiment: Cav3.2 voltage-clamp electrophysiological assay; assay type: cell-based; conditions: Cav3.2 in HEK cells
T1 construct: expressed in transfected cells; host or cells: HEK cells
Excerpt: Prior to recording currents from Cav3.2 T-type Ca^2+ channels expressed in HEK cells, the culture media was replaced with extracellular solution (ECS) containing (in mM): 142 CsCl, 10 D-glucose, 2 CaCl2, 1 MgCl2, 10 HEPES, pH adjusted to 7.4 with CsOH. Borosilicate glass patch pipettes, pulled on a P-97 micropipette puller (Sutter Instruments, Novato, Calif.) with typical resistances of 2-4 MW, were backfilled with intracellular solution containing (in mM): 126.5 Cs-methanesulphonate, 2 MgCl2, 10 HEPES, 11 EGTA, 2 Na-ATP, pH adjusted to 7.3 CsOH. […] were recorded in the whole-cell configuration at room temperature (˜21° C.) using an Axopatch 200B (Molecular Devices, Sunnyvale, Calif.) patch-clamp amplifier. Recordings were low-pass filtered at 1 kHz (−3 dB 4-pole Bessel filter), digitized at 2 kHz with a Digidata 1322A interface (Molecular Devices), and acquired using pClamp 9.2 (Molecular Devices). No leak subtraction was used. Test compounds, prepared as 30 mM stock solutions in DMSO and diluted in extracellular buffer, were applied through a gravity driven multi-barrelled array of capillaries (24 gauge) connected to reservoirs controlled by solenoid valves. The effects of compounds on Cav3.2 slow and fast inactivation were evaluated using four different voltage protocols. The voltage dependence of fast and slow channel inactivation was examined using a two pulse protocol. Data were analyzed and fitted using OriginPro v.7.5 (OriginLab, Northampton, Mass.) software.

SNL L5/L6 rats = experiment: L5/L6 spinal nerve ligation (SNL) Chung pain model, tactile allodynia (von Frey); assay type: in vivo, rat
Excerpt: The Spinal Nerve Ligation is an animal model representing peripheral nerve injury generating a neuropathic pain syndrome. In this model experimental animals develop the clinical symptoms of tactile allodynia and hyperalgesia. L5/L6 Spinal nerve ligation (SNL) injury was induced using the procedure of Kim and Chung (Kim et al., Pain 50:355-363 (1992)) in male Sprague-Dawley rats (Harlan; Indianapolis, Ind.) weighing 200 to 250 grams.
Anaesthesia was induced with 2% isofluorane in O2 at 2 L/min and maintained with 0.5% isofluorane in O2. Rats were then shaved and aseptically prepared for surgeries. A 2 cm paraspinal incision was made at the level of L4-S2. L4/L5 was exposed by removing the transverse process above the nerves with a small rongeur. The L5 spinal nerve is the larger of the two visible nerves below the transverse process and lies closest to the spine. The L6 spinal nerve is located beneath the corner of the slope bone. A home-made glass Chung rod was used to hook L5 or L6 and a pre-made slip knot of 4.0 silk suture was placed on the tip of the rod just above the nerve and pulled underneath to allow for the tight ligation. The L5 and L6 spinal nerves were tightly ligated distal to the dorsal root ganglion. The incision was closed, and the animals were allowed to recover for 5 days.
Sham control rats underwent the same operation and handling as the experimental animals, but without SNL.
Prior to initiating drug delivery, baseline behavioural testing data is obtained. At selected times after infusion of the Test or Control Article behavioural data can then be collected again.
The assessment of tactile allodynia consisted of measuring the withdrawal threshold of the paw ipsilateral to the site of nerve injury in response to probing with a series of calibrated von Frey filaments (innocuous stimuli). Animals were acclimated to the suspended wire-mesh cages for 30 min before testing. Each von Frey filament was applied perpendicularly to the plantar surface of the ligated paw of rats for 5 sec. A positive response was indicated by a sharp withdrawal of the paw. For rats, the first testing filament is 4.31. Measurements were taken before and after administration of test articles. […] The protocol was repeated until three changes in behaviour were determined (“up and down” method) (Chaplan et al., J. Neurosci. Methods 53:55-63 (1994)). The 50% paw withdrawal threshold was determined as (10^[Xf+kδ])/10,000, where Xf=the value of the last von Frey filament employed, k=Dixon value for the positive/negative pattern, and δ=the logarithmic difference between stimuli. The cut-off values for rats were no less than 0.2 g and no higher than 15 g (5.18 filament); for mice no less than 0.03 g and no higher than 2.34 g (4.56 filament). A significant drop of the paw withdrawal threshold compared to the pre-treatment baseline is considered tactile allodynia.
Rat SNL tactile allodynia were tested for Compounds 1-4 and 9-12 at 60 minutes compared to baseline and post-SNL. […] FIG. 1 is a plot of the antiallodynic effects of compound 4 (i.p.) tested in SNL L5/L6 rats using von Frey at three different doses, namely 3, 10 and 30 mpk, compared to vehicle alone. […] Rat SNL tactile allodynia were tested at 1, 2 and 4 hours after drug treatment (Table 6).

male CF1 mice = experiment: 6 Hz psychomotor seizure model of partial epilepsy; assay type: in vivo, mouse; design: Epilepsy 6 Hz (% Protected): concentration or dose not given beside the values
Method: Compounds were evaluated for the protection against seizures induced by a 6 Hz, 0.2 ms rectangular pulse width of 3 s duration, at a stimulus intensity of 32 mA (CC97) applied to the cornea of male CF1 mice (20-30 g) according to procedures described by Barton et al, “Pharmacological Characterization of the 6 Hz Psychomotor Seizure Model of Partial Epilepsy,” Epilepsy Res. 47(3):217-27 (2001). Seizures are characterised by the expression of one or more of the following behaviours: stun, forelimb clonus, twitching of the vibrissae and Straub-tail immediately following electrical stimulation.

[2] = voltage-dependence of half inactivation

T1 sequence (O95180 whole entry): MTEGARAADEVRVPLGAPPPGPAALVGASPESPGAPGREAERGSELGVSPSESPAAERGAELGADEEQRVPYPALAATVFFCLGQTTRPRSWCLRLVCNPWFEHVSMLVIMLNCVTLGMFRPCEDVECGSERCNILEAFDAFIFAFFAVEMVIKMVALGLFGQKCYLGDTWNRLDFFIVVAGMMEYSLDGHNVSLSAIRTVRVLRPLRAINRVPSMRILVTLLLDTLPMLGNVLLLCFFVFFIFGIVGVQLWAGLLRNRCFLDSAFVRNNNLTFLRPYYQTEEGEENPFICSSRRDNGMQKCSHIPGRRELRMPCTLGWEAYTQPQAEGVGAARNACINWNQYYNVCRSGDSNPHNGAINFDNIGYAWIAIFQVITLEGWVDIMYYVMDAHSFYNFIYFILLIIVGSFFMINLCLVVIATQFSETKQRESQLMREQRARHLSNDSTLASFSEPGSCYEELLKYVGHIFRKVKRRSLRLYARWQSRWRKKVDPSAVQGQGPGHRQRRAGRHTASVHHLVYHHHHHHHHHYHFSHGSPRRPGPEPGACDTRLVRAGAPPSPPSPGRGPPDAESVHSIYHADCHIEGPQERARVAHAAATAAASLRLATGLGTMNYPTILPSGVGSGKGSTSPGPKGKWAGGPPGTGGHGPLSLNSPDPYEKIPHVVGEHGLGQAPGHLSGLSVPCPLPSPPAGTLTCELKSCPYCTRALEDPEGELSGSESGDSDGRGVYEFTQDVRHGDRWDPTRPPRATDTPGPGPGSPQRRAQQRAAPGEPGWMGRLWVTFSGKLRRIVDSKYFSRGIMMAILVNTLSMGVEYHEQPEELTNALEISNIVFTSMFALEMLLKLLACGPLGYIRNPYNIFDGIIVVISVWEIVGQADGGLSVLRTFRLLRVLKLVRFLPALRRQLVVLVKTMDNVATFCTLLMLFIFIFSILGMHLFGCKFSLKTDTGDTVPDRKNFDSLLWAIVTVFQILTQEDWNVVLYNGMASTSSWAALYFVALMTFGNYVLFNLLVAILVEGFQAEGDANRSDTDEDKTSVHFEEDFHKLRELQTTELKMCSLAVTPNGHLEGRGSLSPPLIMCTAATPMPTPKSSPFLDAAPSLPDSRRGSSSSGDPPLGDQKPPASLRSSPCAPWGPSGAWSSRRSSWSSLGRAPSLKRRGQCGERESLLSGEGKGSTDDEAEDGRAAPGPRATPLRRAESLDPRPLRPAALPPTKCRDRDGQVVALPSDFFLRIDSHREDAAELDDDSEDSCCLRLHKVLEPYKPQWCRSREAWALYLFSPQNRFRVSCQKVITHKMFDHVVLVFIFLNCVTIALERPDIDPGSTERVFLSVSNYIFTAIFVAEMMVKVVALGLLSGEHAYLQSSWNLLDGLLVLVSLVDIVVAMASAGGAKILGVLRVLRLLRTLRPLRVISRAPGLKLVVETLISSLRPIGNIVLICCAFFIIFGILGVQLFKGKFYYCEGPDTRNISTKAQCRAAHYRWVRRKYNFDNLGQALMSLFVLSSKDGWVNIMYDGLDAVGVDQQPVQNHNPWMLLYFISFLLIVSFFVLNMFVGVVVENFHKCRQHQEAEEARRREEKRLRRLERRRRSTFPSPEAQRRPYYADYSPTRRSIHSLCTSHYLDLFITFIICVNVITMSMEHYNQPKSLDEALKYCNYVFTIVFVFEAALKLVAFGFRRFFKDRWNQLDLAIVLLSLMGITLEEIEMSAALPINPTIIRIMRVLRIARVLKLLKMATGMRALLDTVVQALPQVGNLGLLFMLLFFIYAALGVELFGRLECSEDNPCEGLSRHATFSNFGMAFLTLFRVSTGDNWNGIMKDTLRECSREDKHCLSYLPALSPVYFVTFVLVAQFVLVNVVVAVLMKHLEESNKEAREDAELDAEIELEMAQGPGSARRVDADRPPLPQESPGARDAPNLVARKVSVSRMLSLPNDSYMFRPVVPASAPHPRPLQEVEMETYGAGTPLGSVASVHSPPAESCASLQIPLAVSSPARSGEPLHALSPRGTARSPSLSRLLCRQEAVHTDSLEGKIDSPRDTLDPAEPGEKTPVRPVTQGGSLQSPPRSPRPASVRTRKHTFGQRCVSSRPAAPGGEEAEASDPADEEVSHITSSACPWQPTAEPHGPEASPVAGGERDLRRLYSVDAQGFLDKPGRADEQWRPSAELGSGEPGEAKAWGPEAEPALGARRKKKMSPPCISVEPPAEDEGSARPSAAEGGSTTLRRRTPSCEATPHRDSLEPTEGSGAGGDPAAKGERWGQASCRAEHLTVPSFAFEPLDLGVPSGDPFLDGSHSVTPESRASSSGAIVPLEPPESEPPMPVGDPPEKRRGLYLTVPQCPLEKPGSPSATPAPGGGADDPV

O=C1CN(C(=O)CC(c2ccc(Cl)cc2)c2ccc(Cl)cc2)CCN1 [Compound 3, 4-(3,3-bis(4-chlorophenyl)propanoyl)piperazin-2-one]
τ recovery from fast inactivation (ms) [1]: *512 ms | τ recovery from slow inactivation (ms) [1]: *903 ms | Fraction of current recovered at 5.1 s interval [1]: 0.91 | Fraction current remaining at −40 mV ([1]; at −40 mV): *0.40 | V1/2 fast inactivation (mV) [1, 2]: −64 mV | V1/2 slow inactivation (mV) [1, 2]: −78 mV | Rat SNL Tactile Allodynia (% Antiallodynia) (SNL L5/L6 rats; 1 hour after drug treatment): 51% | Rat SNL Tactile Allodynia (% Antiallodynia) (SNL L5/L6 rats; 2 hours after drug treatment): 49% | Rat SNL Tactile Allodynia (% Antiallodynia) (SNL L5/L6 rats; 4 hours after drug treatment): 30% | Epilepsy 6 Hz (% Protected) (male CF1 mice; 0.25 hour): 0% | Epilepsy 6 Hz (% Protected) (male CF1 mice; 0.5 hour): 0% | Epilepsy 6 Hz (% Protected) (male CF1 mice; 1 hour): 0% | Epilepsy 6 Hz (% Protected) (male CF1 mice; 2 hours): 0% | Epilepsy 6 Hz (% Protected) (male CF1 mice; 4 hours): 0%

O=C1CN(C(=O)CC(c2ccccc2)c2ccccc2)CCN1 [Compound 4, 4-(3,3-diphenylpropanoyl)piperazin-2-one]
τ recovery from slow inactivation [1]: 495 ms | Fraction of current recovered at 5.1 s interval [1]: 0.98 | Rat SNL Tactile Allodynia (% Antiallodynia) (SNL L5/L6 rats; 1 hour after drug treatment): 92% | Rat SNL tactile allodynia, anti-allodynia (statement) (SNL L5/L6 rats; compared to baseline and post-SNL): significant antiallodynia | Antiallodynic effects compared to vehicle (FIG. 1) (SNL L5/L6 rats; i.p., 3, 10 and 30 mpk, 60 minutes after drug administration, von Frey): statistically significant antiallodynic effects | Epilepsy 6 Hz (% Protected) (male CF1 mice; 0.25 hour): 50% | Epilepsy 6 Hz (% Protected) (male CF1 mice; 0.5 hour): 88% | Epilepsy 6 Hz (% Protected) (male CF1 mice; 1 hour): 13% | Epilepsy 6 Hz (% Protected) (male CF1 mice; 2 hours): 25% | ED50 (male CF1 mice; Mus musculus, 32 mA, mice): 192 mg/kg
